In patent US9156856B2, “Apoptosis-inducing agents for the treatment of cancer and immune and autoimmune diseases” (AbbVie Inc., priority 2009, dated 2015):

Molecular target: Bcl-2 (Homo sapiens (Human), UniProt P10415)
Assay: Time Resolved-Fluorescence Resonance Energy Transfer (TR-FRET) Bcl-2 binding assay with F-Bak peptide probe
Conditions: GST-Bcl-2 1 nM, F-Bak peptide probe 100 nM, Tb-anti-GST antibody 1 nM; Ki by Wang's equation
Method: Determination of the utility of compounds having Formula (I) as binders to and inhibitors of anti-apoptotic Bcl-2 proteins was performed using the Time Resolved-Fluorescence Resonance Energy Transfer (TR-FRET) Assay. Tb-anti-GST antibody was purchased from Invitrogen (Catalog No. PV4216).
Representative compounds were serially diluted in dimethyl sulfoxide (DMSO) starting at 50 μM (2× starting concentration; 10% DMSO) and 10 μL were transferred into a 384-well plate. The samples are then mixed on a shaker for 1 minute and incubated for an additional 3 hours at room temperature. For each assay, the probe/antibody and protein/probe/antibody were included on each assay plate as negative and positive controls, respectively. Fluorescence was measured on the ENVISION plate reader (Perkin Elmer) using a 340/35 nm excitation filter and 520/525 (F-Bak peptide) and 495/510 nm (Tb-labeled […] antibody) emission filters Inhibition constants (Ki) are shown in TABLE 2 below and were determined using Wang's equation (Wang Z.-X. An Exact Mathematical Expression For Describing Competitive Binding Of Two Different Ligands To A Protein Molecule. FEBS Lett. 1995, 360:111-4).
The inhibition constant (Ki) is the dissociation constant of an enzyme-inhibitor complex or a protein/small molecule complex, wherein the small molecule is inhibiting binding of one protein to another protein. So a large K, value indicates a low binding affinity and a small Ki value indicates a high binding affinity.
The compounds are therefore expected to have utility in treatment of diseases during which anti-apoptotic Bcl-2 protein is expressed.

Chain of Bcl-2 (P10415 whole entry): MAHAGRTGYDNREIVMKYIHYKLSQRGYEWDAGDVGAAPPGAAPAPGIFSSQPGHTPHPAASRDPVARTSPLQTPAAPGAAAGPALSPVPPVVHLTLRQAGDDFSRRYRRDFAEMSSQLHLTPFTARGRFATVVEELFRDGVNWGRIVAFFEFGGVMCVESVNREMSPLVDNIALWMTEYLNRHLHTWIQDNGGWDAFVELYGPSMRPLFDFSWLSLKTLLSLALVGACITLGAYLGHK

CC(=O)N(CCSc1ccccc1)C1CCN(S(=O)(=O)NC(=O)c2ccc(N3CCN(Cc4ccccc4-c4ccc(Cl)cc4)CC3)cc2)CC1 [Example 5, N-[(4-{acetyl[2-(phenylthio)ethyl]amino}piperidin-1-yl)sulfonyl]-4-{4-[(4′-chloro-1,1′-biphenyl-2-yl)methyl]piperazin-1-yl}benzamide]
Ki: 176 nM

COC1(CC2CCCCC2)CCN(c2ccc(C(=O)NS(=O)(=O)c3cc([N+](=O)[O-])c(N[C@H](CCN(C)C)CSc4ccccc4)s3)cc2)CC1 [Example 1, 4-[4-(cyclohexylmethyl)-4-methoxypiperidin-1-yl]-N-{[5-({(1R)-3-(dimethylamino)-1-[(phenylthio)methyl]propyl}amino)-4-nitrothien-2-yl]sulfonyl}benzamide]
Ki: 51.4 nM

Cc1cc(C)n2nc(S(=O)(=O)NC(=O)c3ccc(N4CCN(CC5=C(c6ccc(Cl)cc6)CC(C)(C)CC5)CC4)cc3Oc3cccc(Cl)c3)nc2n1 [Example 40, 2-(3-chlorophenoxy)-4-(4-{[2-(4-chlorophenyl)-4,4-dimethylcyclohex-1-en-1-yl]methyl}piperazin-1-yl)-N-[(5,7-dimethyl[1,2,4]triazolo[1,5-a]pyrimidin-2-yl)sulfonyl]benzamide]
Ki: 0.407 nM

CCC(CC)NC(=O)c1nnc(S(=O)(=O)NC(=O)c2ccc(N3CCN(Cc4ccccc4-c4ccc(Cl)cc4)CC3)cc2)s1 [Example 28, 5-{[(4-{4-[(4′-chloro-1,1′-biphenyl-2-yl)methyl]piperazin-1-yl}benzoyl)amino]sulfonyl}-N-(1-ethylpropyl)-1,3,4-thiadiazole-2-carboxamide]
Ki: 417 nM

O=C(NS(=O)(=O)N1CCOCC1)c1ccc(N2CCN(Cc3ccccc3-c3ccc(Cl)cc3)CC2)cc1 [Example 14, 4-{4-[(4′-chloro-1,1′-biphenyl-2-yl)methyl]piperazin-1-yl}-N-(morpholin-4-ylsulfonyl)benzamide]
Ki: 409 nM

CC(=O)/N=c1\sc(S(=O)(=O)NC(=O)c2ccc(N3CCN(Cc4ccccc4-c4ccc(Cl)cc4)CC3)cc2)nn1C [Example 10, N-{[(5Z)-5-(acetylimino)-4-methyl-4,5-dihydro-1,3,4-thiadiazol-2-yl]sulfonyl}-4-{4-[(4′-chloro-1,1′-biphenyl-2-yl)methyl]piperazin-1-yl}benzamide]
Ki: 743 nM

CN(C)CC[C@H](CSc1ccccc1)Nc1sc(S(=O)(=O)NC(=O)c2ccc(N3CCC(=Cc4ccccc4C(F)(F)F)CC3)cc2)cc1[N+](=O)[O-] [Example 36, N-{[5-({(1R)-3-(dimethylamino)-1-[(phenylthio)methyl]propyl}amino)-4-nitrothien-2-yl]sulfonyl}-4-{4-[2-(trifluoromethyl)benzylidene]piperidin-1-yl}benzamide]
Ki: 294 nM

O=C(NS(=O)(=O)c1ccc(-c2ccno2)o1)c1ccc(N2CCN(Cc3ccccc3-c3ccc(Cl)cc3)CC2)cc1 [Example 31, 4-{4-[(4′-chloro-1,1′-biphenyl-2-yl)methyl]piperazin-1-yl}-N-[(5-isoxazol-5-yl-2-furyl)sulfonyl]benzamide]
Ki: 139 nM

Cc1c(S(=O)(=O)NC(=O)c2ccc(N3CCN(Cc4ccccc4-c4ccc(Cl)cc4)CC3)cc2Oc2ccccc2)sc2ccc(Cl)cc12 [Example 39, 4-{4-[(4′-chloro-1,1′-biphenyl-2-yl)methyl]piperazin-1-yl}-N-[(5-chloro-3-methyl-1-benzothien-2-yl)sulfonyl]-2-phenoxybenzamide]
Ki: 20.2 nM

Cc1nc(OCC2(F)CCOCC2)sc1S(=O)(=O)NC(=O)c1ccc(N2CCN(CC3=C(c4ccc(Cl)cc4)CC(C)(C)CC3)CC2)cc1Oc1cccc2[nH]cnc12 [Example 46, 2-(1H-benzimidazol-4-yloxy)-4-(4-{[2-(4-chlorophenyl)-4,4-dimethylcyclohex-1-en-1-yl]methyl}piperazin-1-yl)-N-({2-[(4-fluorotetrahydro-2H-pyran-4-yl)methoxy]-4-methyl-1,3-thiazol-5-yl}sulfonyl)benzamide]
Ki: 1.75 nM

Cc1cc(-c2oncc2S(=O)(=O)NC(=O)c2ccc(N3CCN(Cc4ccccc4-c4ccc(Cl)cc4)CC3)cc2)n(C)n1 [Example 23, 4-{4-[(4′-chloro-1,1′-biphenyl-2-yl)methyl]piperazin-1-yl}-N-{[5-(1,3-dimethyl-1H-pyrazol-5-yl)isoxazol-4-yl]sulfonyl}benzamide]
Ki: 447 nM

Cc1cc(C)n2nc(S(=O)(=O)NC(=O)c3ccc(N4CCN(CC5=C(c6ccc(Cl)cc6)CC(C)(C)CC5)CC4)cc3Oc3cc4cc[nH]c4cc3F)nc2n1 [Example 41, 4-(4-{[2-(4-chlorophenyl)-4,4-dimethylcyclohex-1-en-1-yl]methyl}piperazin-1-yl)-N-[(5,7-dimethyl[1,2,4]triazolo[1,5-a]pyrimidin-2-yl)sulfonyl]-2-[(6-fluoro-1H-indol-5-yl)oxy]benzamide]
Ki: 0.053 nM
